{"source": "patent US20250171511A1", "about": "“ANTIVIRAL PEPTIDES AND METHODS OF USE THEREOF” (Versitech Limited, priority 2021, published 2025)", "key": {"[1]": {"tested_on": "fusion mediated by spike-Calu-3 cells", "assay": "Spike mediated cell fusion assay with Calu-3 cells", "assay_type": "cell-based", "conditions": "TMPRSS2 pathway"}, "SARS-CoV-2 (B.1.1.63)": {"tested_on": "SARS-CoV-2 (B.1.1.63)", "assay": "Post-infection treatment, viral titers in supernatants", "conditions": "4H30 added at 6 hpi"}, "HRV-1B": {"tested_on": "HRV-1B", "assay": "HRV-1B infection, supernatant viral RNA by RT-qPCR", "assay_type": "cell-based", "conditions": "RD or H1-Hela cells, 30 hpi", "method": "(§1) Viruses were treated by 4H30 for infection in RD or H1-Hela cells. Viruses, HRV-1B and HRV-B14 were treated by 4H30 in PBS for 30 min and then the treated viruses were added to RD or H1-Hela cells for infection. After 1 h infection, the un-infected viruses were removed and fresh media with the indicated concentration of 4H30 was added to cells for viral culture. The supernatant viruses were measured at 30 hpi by RT-qPCR. Viral RNA copy (%) was the viral RNA of 4H30-treated virus normalized to that of untreated virus (0). […] The primers for detecting the viral RNA copies: HRV-F1: 5′-[…] -3′; HRV-F2: 5′-[…] -3′, HRV-R: 5′-[…] -3′; HRV-Probe: 5′ HEX-[…] -1ABKFQ 3′ (Y=C or T, K=G or T). The supernatant viruses were measured at 30 hpi."}, "SARS-CoV-2 [2]": {"tested_on": "SARS-CoV-2", "assay": "Antiviral activity of GAG-treated 4H30 (viral RNA copy)", "assay_type": "cell-based"}, "[3]": {"tested_on": "SARS-CoV-2 (B.1. 617.2, Delta)", "assay": "Post-exposure antiviral activity in hamsters, Delta", "assay_type": "in vivo, hamster", "conditions": "0.5 mg kg^−1, post exposure"}, "SARS-CoV-2 [4]": {"tested_on": "SARS-CoV-2", "assay": "SARS-CoV-2 replication in Calu-3 cells pretreated by 4H30", "assay_type": "cell-based"}, "SARS-CoV-2 [5]": {"tested_on": "SARS-CoV-2", "assay": "Transmission electron microscopy assay", "conditions": "virus pretreated", "method": "To determine the effect of 4H30 on viral particles, SARS-CoV-2 was pretreated by 100 μg ml^−1 of 4H30 or H30 for 1 h. The virus was fixed by formalin for overnight. For spike treated by 4H30 or H30, spike (100 μg ml^−1 mixed with 50 μg ml^−1 of 4H30 or H30. Viral or protein samples were applied to continuous carbon grids. The grids were transferred into 4% uranyl acetate and incubated for 1 min. After removing the solution, the grids were air-dried at room temperature. For each peptide/DNA nanoparticle, three independent experiments were done for taking TEM images by FEI Tecnal G2-20 TEM or Philips CM100-TEM."}, "SARS-CoV-2 (B.1.163)": {"tested_on": "SARS-CoV-2 (B.1.163)", "assay": "Post-exposure antiviral activity in hamsters, B.1.163", "conditions": "hamster, in vivo"}, "SARS-CoV-2 [6]": {"tested_on": "SARS-CoV-2", "assay": "Viral attachment/entry and replication in VeroE6 cells by RT-qPCR", "assay_type": "cell-based"}, "VeroE6 cells [7]": {"tested_on": "VeroE6 cells", "assay": "MTT cytotoxicity assay in VeroE6 cells", "assay_type": "cell-based", "method": "Cytotoxicity of peptides was determined by the detection of 50% cytotoxic concentration (CC50) using a tetrazolium-based colorimetric MTT assay (H. Zhao, et al., Sci Rep, 6 (2016) 22008). Briefly, cells were seeded in 96-well cell culture plate at an initial density of 4×10^4 cells per well in DMEM supplemented with 10% FBS and incubated for overnight. Cell culture media were removed and then DMEM supplemented with various concentrations of peptides and 1% FBS were added to each well. After 24 h incubation at 37° C., MTT solution (5 mg ml^−1, 10 μl per well) was added to each well for incubation at 37° C. for 4 h. Then, 100 μl of 10% SDS in 0.01M HCl was added to each well. After further incubation at room temperature with shaking overnight, the plates were read at OD570 using VictorTM X3 Multilabel Reader (PerkinElmer, USA). Cell culture wells without peptides were used as the experiment control and medium only served as a blank control."}, "[8]": {"assay": "ELISA binding of 4H30 to chondroitin sulfate", "conditions": "compared with BSA"}, "SARS-CoV-2 [9]": {"tested_on": "SARS-CoV-2", "assay_type": "cell-based"}, "VeroE6 cells [10]": {"tested_on": "VeroE6 cells", "assay": "Endosomal acidification assay", "assay_type": "cell-based", "method": "Endosomal acidification was detected with a pH-sensitive dye (pHrodo green dextran, Invitrogen, Cat^# P35365) according to the manufacturer's instructions as previously described but with slight modification (H. Zhao, et al., Nat Commun, 9 (2018) 2358). First, VeroE6 cells were treated with DMEM, 4H30 (25.0 μg ml^−1), or bafilomycin A1 (50.0 nM) at 4° C. for 15 min. Second, VeroE6 cells were added with 100 μg ml^−1 of pH-sensitive dye and DAPI and then incubated at 4° C. for 15 min. Before taking images, cells were further incubated at 37° C. for 15 min and then cells were washed twice with PBS. Finally, PBS was added to cells and images were taken immediately with confocal microscope (Carl Zeiss LSM 800, Germany)."}, "[11]": {"conditions": "intranasal"}, "HRV-B14": {"tested_on": "HRV-B14", "assay": "HRV-B14 infection, supernatant viral RNA by RT-qPCR", "assay_type": "cell-based", "conditions": "RD or H1-Hela cells, 30 hpi", "method": "as §1"}, "SARS-CoV-2 [12]": {"tested_on": "SARS-CoV-2", "assay": "Viral entry fluorescence assay", "assay_type": "cell-based"}, "H1N1 virus": {"tested_on": "H1N1 virus", "assay": "H1N1 plaque reduction assay", "assay_type": "cell-based", "conditions": "virus treated in PBS 30 min, VeroE6"}, "[13]": {"assay": "ELISA binding of 4H30 to heparan sulfate", "conditions": "compared with BSA"}, "spike and ACE2": {"molecular_target": "spike and ACE2 (Severe acute respiratory syndrome coronavirus 2, UniProt P0DTC2)", "conditions": "ELISA"}, "spike": {"molecular_target": "spike (Severe acute respiratory syndrome coronavirus 2, UniProt P0DTC2)", "conditions": "ELISA"}, "[14]": {"tested_on": "spike-ACE2 mediated fusion", "assay_type": "cell-based", "conditions": "endocytosis pathway"}}, "note": "Like-named read-outs stand apart in the source and are kept apart here. Where no end group is shown, it is not given here. 4MPA = not defined here"}
{"substance": "GAICHPVFCPRRYKQIGTCGLPGTKCCKKP-4MPA (cysteine pairing not given here; reading uncertain; also: printed as GAICHPVFCPRRYKQIGTCGLPGTKCCKKP-4MPA) [Peptide 4H30]", "values": [{"measurement": "fusion mediated by spike-Calu-3 cells", "setting": "[1]", "value": "did not inhibit"}, {"measurement": "SARS-CoV-2 replication", "setting": "SARS-CoV-2 (B.1.1.63); Calu-3 cells", "value": "significantly inhibited"}, {"measurement": "SARS-CoV-2 replication", "setting": "SARS-CoV-2 (B.1.1.63); VeroE6 cells", "value": "significantly inhibited"}, {"measurement": "inhibition of HRV-1B, viral RNA copy", "setting": "HRV-1B", "value": "effectively inhibited"}, {"measurement": "antiviral activity of GAG-treated 4H30", "setting": "SARS-CoV-2 [2]; 4H30 treated by 1250 ng/ml of CS or HS", "value": "significantly reduced"}, {"measurement": "antiviral activity of GAG-treated 4H30", "setting": "SARS-CoV-2 [2]; CS or HS in physiological concentration (50˜100 ng/ml)", "value": "still significantly inhibit viral replication"}, {"measurement": "SARS-CoV-2 replication in hamsters", "setting": "[3]", "value": "significantly inhibited"}, {"measurement": "syncytium formation and bronchial epithelial pathology in lungs", "setting": "[3]", "value": "reduced the syncytium formation and bronchial epithelial pathology"}, {"measurement": "SARS-CoV-2 replication", "setting": "SARS-CoV-2 [4]", "value": "did not increase SARS-CoV-2 replication"}, {"measurement": "integrity of viral particles under TEM", "setting": "SARS-CoV-2 [5]", "value": "did not disrupt viral particles"}, {"measurement": "viral clusters under TEM", "setting": "SARS-CoV-2 [5]", "value": "cross-linked SARS-CoV-2 to form bigger viral clusters"}, {"measurement": "SARS-CoV-2 replication in lungs", "setting": "SARS-CoV-2 (B.1.163)", "value": "significantly inhibit"}, {"measurement": "viral load increase at 6 hpi compared with 1 hpi", "setting": "SARS-CoV-2 [6]", "value": 13, "unit": "fold"}, {"measurement": "viral attachment and/or entry", "setting": "SARS-CoV-2 [6]; cells pretreated by 4H30", "value": "significantly increased"}, {"measurement": "viral attachment and/or entry", "setting": "SARS-CoV-2 [6]; virus pretreated by 4H30", "value": "significantly increased"}, {"measurement": "SARS-CoV-2 attachment to cells", "setting": "SARS-CoV-2 [6]; at 4 degrees", "value": "increase SARS-CoV-2 attachment"}, {"measurement": "viral load at 6 hpi compared with 1 hpi", "setting": "SARS-CoV-2 [6]; cell lysate, virus pretreated by 4H30", "value": "no significant increase in viral load"}, {"measurement": "TC50", "setting": "VeroE6 cells [7]", "value": "higher than 400 μg ml^−1"}, {"measurement": "binding to chondroitin sulfate (CS)", "setting": "[8]", "value": "effectively bind"}, {"measurement": "attachment of SARS-CoV-2 to cells", "setting": "SARS-CoV-2 [9]; 4H30 pretreated by GAGs", "value": "significantly reduced"}, {"measurement": "attachment of SARS-CoV-2 to cells", "setting": "SARS-CoV-2 [9]; A549 (ACE2^−) cells treated by 4H30", "value": "significantly increased"}, {"measurement": "attachment of SARS-CoV-2 to cells", "setting": "SARS-CoV-2 [9]; Calu-3 (ACE2^+) cells treated by 4H30", "value": "significantly increased"}, {"measurement": "attachment of SARS-CoV-2 to cells", "setting": "SARS-CoV-2 [9]; cells pretreated by Chondroitinase ABC and Heparinase", "value": "significantly reduced"}, {"measurement": "endosomal acidification", "setting": "VeroE6 cells [10]", "value": "inhibition of endosomal acidification"}, {"measurement": "pathological and body weight changes", "setting": "[11]; 4 dpi", "value": "did not cause pathological and body weight changes"}, {"measurement": "histopathological and body weight changes", "setting": "[11]; 40 dpi, compared with mock", "value": "no significant histopathological and body weight changes"}, {"measurement": "inhibition of HRV-B14, viral RNA copy", "setting": "HRV-B14", "value": "effectively inhibited"}, {"measurement": "viral clustering and entry", "setting": "SARS-CoV-2 [12]", "value": "did not cluster viral particles and did not block viral entry"}, {"measurement": "viral clustering and entry", "setting": "SARS-CoV-2 [12]; virus pretreated, Calu-3 and VeroE6 cells", "value": "cross-link SARS-CoV-2 to form big viral clusters on Calu-3 and VeroE6 cell membrane without viral entry"}, {"measurement": "H1N1 virus replication", "setting": "H1N1 virus", "value": "significantly inhibited"}, {"measurement": "binding to heparan sulfate (HS)", "setting": "[13]", "value": "effectively bind"}, {"measurement": "binding between spike and ACE2", "setting": "spike and ACE2", "value": "did not significantly affect"}, {"measurement": "binding to spike", "setting": "spike", "value": "more effectively bound to spike when compared with ACE2"}, {"measurement": "spike-ACE2 mediated cell fusion", "setting": "[14]", "value": "blocking of spike-ACE2 mediated fusion"}]}
